# According to patent US20050112573A1, “Method of detecting toxic substance” (priority 2001, published 2005):
# System: yeast genes (level of expressed mRNA)
# Experiment: DNA chip analysis of expressed mRNA of yeast genes after 2 h culture with a toxic chemical substance
# Assay type: cell-based, Saccharomyces cerevisiae S288C
# Settings: for The level of expressed mRNA in the presence of chemical substance/ in its absence, gene YDL078C: yeast gene YDL078C; for The level of expressed mRNA in the presence of chemical substance/ (ratio to absence of chemical substance): stress protein genes, DNA chip
# How it was run: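 Values are treated-to-control fluorescence ratios from a whole-yeast-genome DNA chip (65° C, over 12 h hybridization) using Cy3/Cy5-labelled cDNA from mRNA. Log-phase S288C cells in YPD at 25° C were exposed 2 h to a toxicant at sublethal, growth-inhibiting concentration.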
smiles,measurement,setting,value
"S=C([S-])NCCNC(=S)[S-].[Zn+2] [(11), zinc N,N′-ethylenebis(dithiocarbamate)]","The level of expressed mRNA in the presence of chemical substance/ in its absence, gene YDL078C","energy system protein genes, 2 h culture with the chemical, ratio to control without chemical",1.7
same,"The level of expressed mRNA in the presence of chemical substance/ in its absence, gene YDL078C",ratio of DNA chip fluorescence intensity to that without chemical substance,1.7
same,"The level of expressed mRNA in the presence of chemical substance/ (in its absence), gene YDL215C","yeast gene YDL215C, ratio of DNA chip fluorescence intensity to that without chemical substance",0.8
same,The level of expressed mRNA in the presence of chemical substance/The level of expressed mRNA in the absence of chemical substance,yeast gene YDL238C,1.1
same,The level of expressed mRNA in the presence of chemical substance/The level of expressed mRNA in the absence of chemical substance,yeast gene YDR055W,2.2
same,"The level of expressed mRNA in the presence of chemical substance/ (in its absence), gene YDR073W","yeast gene YDR073W, ratio of DNA chip fluorescence intensity to that without chemical substance",1.0
same,"The level of expressed mRNA in the presence of chemical substance/ in its absence, gene YDR079W","yeast gene YDR079W, energy system protein genes, 2 h culture with the chemical, ratio to control without chemical",1.3
same,"The level of expressed mRNA in the presence of chemical substance/ (ratio to absence), gene YDR079W","yeast gene YDR079W, mitochondria-located protein genes, 2 h culture with chemical",1.3
same,The level of expressed mRNA in the presence of chemical substance/The level of expressed mRNA in the absence of chemical substance,yeast gene YDR084C,0.7
same,The level of expressed mRNA in the presence of chemical substance/The level of expressed mRNA in the absence of chemical substance,yeast gene YDR085C,1.7
same,The level of expressed mRNA in the presence of chemical substance/The level of expressed mRNA in the absence of chemical substance,yeast gene YDR104C,1.0
same,The level of expressed mRNA in the presence of chemical substance/The level of expressed mRNA in the absence of chemical substance,yeast gene YDR115W,1.2
same,The level of expressed mRNA in the presence of chemical substance/The level of expressed mRNA in the absence of chemical substance,yeast gene YDR259C,1.2
same,"The level of expressed mRNA in the presence of chemical substance/ (in its absence), gene YDR297W","yeast gene YDR297W, ratio of DNA chip fluorescence intensity to that without chemical substance",1.4
same,The level of expressed mRNA in the presence of chemical substance/The level of expressed mRNA in the absence of chemical substance,yeast gene YDR315C,1.1
same,The level of expressed mRNA in the presence of chemical substance/The level of expressed mRNA in the absence of chemical substance,yeast gene YDR358W,1.0
same,"The level of expressed mRNA in the presence of chemical substance/ (ratio to absence), gene YDR377W","yeast gene YDR377W, mitochondria-located protein genes, 2 h culture with chemical",1.4
same,"The level of expressed mRNA in the presence of chemical substance/ (in its absence), gene YDR387C","yeast gene YDR387C, ratio of DNA chip fluorescence intensity to that without chemical substance",2.0
same,The level of expressed mRNA in the presence of chemical substance/The level of expressed mRNA in the absence of chemical substance,yeast gene YDR388W,1.6
same,The level of expressed mRNA in the presence of chemical substance/The level of expressed mRNA in the absence of chemical substance,yeast gene YDR432W,0.6
same,The level of expressed mRNA in the presence of chemical substance/The level of expressed mRNA in the absence of chemical substance,yeast gene YDR481C,1.2
same,The level of expressed mRNA in the presence of chemical substance/The level of expressed mRNA in the absence of chemical substance,yeast gene YDR510W,1.6
same,The level of expressed mRNA in the presence of chemical substance/ (ratio to absence of chemical substance),yeast gene YEL039C,1.7
same,The level of expressed mRNA in the presence of chemical substance/The level of expressed mRNA in the absence of chemical substance,yeast gene YEL042W,1.6
same,The level of expressed mRNA in the presence of chemical substance/The level of expressed mRNA in the absence of chemical substance,yeast gene YEL066W,1.9
same,"The level of expressed mRNA in the presence of chemical substance/ (in its absence), gene YER015W","yeast gene YER015W, ratio of DNA chip fluorescence intensity to that without chemical substance",1.0
same,The level of expressed mRNA in the presence of chemical substance/The level of expressed mRNA in the absence of chemical substance,yeast gene YER039C,1.2
same,The level of expressed mRNA in the presence of chemical substance/ (ratio to absence of chemical substance),yeast gene YER057C,1.8
same,The level of expressed mRNA in the presence of chemical substance/The level of expressed mRNA in the absence of chemical substance,yeast gene YER107C,0.7
same,The level of expressed mRNA in the presence of chemical substance/The level of expressed mRNA in the absence of chemical substance,yeast gene YER130C,0.9
same,The level of expressed mRNA in the presence of chemical substance/The level of expressed mRNA in the absence of chemical substance,yeast gene YFL028C,1.3
same,The level of expressed mRNA in the presence of chemical substance/The level of expressed mRNA in the absence of chemical substance,yeast gene YFL043C,1.1
same,"The level of expressed mRNA in the presence of chemical substance/ (in its absence), gene YGL035C","yeast gene YGL035C, ratio of DNA chip fluorescence intensity to that without chemical substance",1.3
same,"The level of expressed mRNA in the presence of chemical substance/ (in its absence), gene YGL115W","yeast gene YGL115W, ratio of DNA chip fluorescence intensity to that without chemical substance",1.0
same,The level of expressed mRNA in the presence of chemical substance/ (ratio to absence of chemical substance),yeast gene YGL115W,1.0
same,The level of expressed mRNA in the presence of chemical substance/The level of expressed mRNA in the absence of chemical substance,yeast gene YGL158W,0.2
same,"The level of expressed mRNA in the presence of chemical substance/ (ratio to absence), gene YGL187C","yeast gene YGL187C, mitochondria-located protein genes, 2 h culture with chemical",0.7
same,"The level of expressed mRNA in the presence of chemical substance/ (in its absence), gene YGL205W","yeast gene YGL205W, ratio of DNA chip fluorescence intensity to that without chemical substance",0.4
same,The level of expressed mRNA in the presence of chemical substance/The level of expressed mRNA in the absence of chemical substance,yeast gene YGL229C,1.1
same,"The level of expressed mRNA in the presence of chemical substance/ in its absence, gene YGR062C","yeast gene YGR062C, energy system protein genes, 2 h culture with the chemical, ratio to control without chemical",1.6
same,"The level of expressed mRNA in the presence of chemical substance/ (ratio to absence), gene YGR062C","yeast gene YGR062C, mitochondria-located protein genes, 2 h culture with chemical",1.6
same,"The level of expressed mRNA in the presence of chemical substance/ (in its absence), gene YGR096W","yeast gene YGR096W, ratio of DNA chip fluorescence intensity to that without chemical substance",0.8
same,The level of expressed mRNA in the presence of chemical substance/The level of expressed mRNA in the absence of chemical substance,yeast gene YGR136W,1.3
same,The level of expressed mRNA in the presence of chemical substance/The level of expressed mRNA in the absence of chemical substance,yeast gene YGR189C,1.5
same,The level of expressed mRNA in the presence of chemical substance/The level of expressed mRNA in the absence of chemical substance,yeast gene YGR213C,1.6
same,The level of expressed mRNA in the presence of chemical substance/The level of expressed mRNA in the absence of chemical substance,yeast gene YGR257C,1.2
same,"The level of expressed mRNA in the presence of chemical substance/ (in its absence), gene YGR287C","yeast gene YGR287C, ratio of DNA chip fluorescence intensity to that without chemical substance",1.5
same,"The level of expressed mRNA in the presence of chemical substance/ (in its absence), gene YGR288W","yeast gene YGR288W, ratio of DNA chip fluorescence intensity to that without chemical substance",1.3
same,The level of expressed mRNA in the presence of chemical substance/ (ratio to absence of chemical substance),yeast gene YHL028W,0.7
same,The level of expressed mRNA in the presence of chemical substance/ (ratio to absence of chemical substance),yeast gene YHL046C,0.4
same,The level of expressed mRNA in the presence of chemical substance/The level of expressed mRNA in the absence of chemical substance,yeast gene YHR004C,0.8
same,The level of expressed mRNA in the presence of chemical substance/The level of expressed mRNA in the absence of chemical substance,yeast gene YHR071W,1.8
same,The level of expressed mRNA in the presence of chemical substance/The level of expressed mRNA in the absence of chemical substance,yeast gene YHR139C,3.5
same,The level of expressed mRNA in the presence of chemical substance/The level of expressed mRNA in the absence of chemical substance,yeast gene YHR142W,1.1
same,"The level of expressed mRNA in the presence of chemical substance/ (in its absence), gene YHR210C","yeast gene YHR210C, ratio of DNA chip fluorescence intensity to that without chemical substance",1.5
same,"The level of expressed mRNA in the presence of chemical substance/ (in its absence), gene YIL006W","yeast gene YIL006W, ratio of DNA chip fluorescence intensity to that without chemical substance",1.0
same,The level of expressed mRNA in the presence of chemical substance/ (ratio to absence of chemical substance),yeast gene YIL011W,2.5
